Read-outs that look alike come from different tables or passages of the source.
How the values were obtained:
[1] = Phase I dose escalation: safety, tolerability, DLT and MTD (CTC-AE 4.03); assay type: in vivo
Procedure: This was the first-in-human phase I dose-escalation study of AST1306 for patients with advanced solid tumors. AST1306 was orally administered without food for one day followed by two days off to evaluate single dose PK profiles. After that, it was continuously administered for 21 days and two days off to assess multiple dose PK profiles and safety. […] Three times daily in three dose levels (800 mg TID, 1000 mg TID and 1200 mg TID) were explored subsequently. Treatment was then repeated at the same dose level in 28-day cycles until unacceptable toxicities, disease progression or the patient’s withdrew from the study. PK extension study was performed to enroll additional patients up to at least eight patients per dose cohort in three dose levels (MTD, one or two doses level lower than the MTD) for further evaluation of PK profiles.
Safety and tolerability were evaluated and assessed by investigators throughout the study and up to 14 days after the final dose of AST1306 according to Common Terminology Criteria for Adverse Events (CTC-AE) version 4.03. Laboratory evaluations and electrocardiogram were conducted at screening; every week of first and second cycles; every two weeks of third cycle and every four weeks of subsequent cycles. AEs assessment, vital signs, physical examinations and echocardiography were performed.
A modified Fibonacci 3 plus 3 dose-escalation design was employed. Tolerability was evaluated according to the type and frequency of DLTs observed from single-day-dose administration until day 21 of the first cycle of continuous dosing. DLTs were defined as follows: grade ≥ 3 non-hematologic toxicity (except nausea, vomiting and diarrhea); grade ≥ 3 nausea, vomiting or diarrhea uncontrollable with standard supportive care; grade 4 neutropenia or febrile neutropenia; and grade 4 thrombocytopenia or bleeding requiring a platelet transfusion. If two or more patients experienced DLTs in three to six patients for each cohort, dose escalation was terminated and the dose level below was defined as the MTD.
Dose interruptions were permitted for no more than 14 days for patients experiencing DLTs in the first cycle or intolerable toxicities in the subsequent cycles, with treatment resumed at the next lower dose level upon adequate recovery (grade ≤ 1). More than two dose level reductions were not allowed.
Patients in the PK extension study and food-effect study were also included to evaluate safety further.

[2] = tested on: human tumor xenograft models that expressed or overexpressed HER family members; set-up: method as in PMID 21789172; details: especially HER2 overexpression or EGFR T790M mutant tumors; cited from earlier work
[3] = Food-effect study, two-way crossover, single dose; assay type: in vivo, human; details: for apparent oral clearance (CL/F) / Tmax / AUC(0-inf) / AUC(0-t) / Cmax / half-life: 1000 mg single oral dose; for apparent oral clearance (CL/F) / AUC(0-inf) / AUC(0-t) / Cmax / half-life: geometric mean (range); for Tmax / AUC(0-inf) / AUC(0-t) / Cmax / half-life: plasma, po; for Tmax: (range); for half-life: read-out: t1/2z (converted)
Procedure: Figure S1). On day 1, 6 subjects were fasted and 6 were fed, and all 12 subjects received a single dose of AST1306. […] On “fasting” days (day 1 or 4), subjects were required to fast for a minimum of 2 h prior to dosing, and for at least 1 h post-dosing. […] PK sampling then took place on day 1 and day 4. The PK sampling time points were pre-dose, 0.5, 1, 1.5, 2, 2.5, 3, 4, 6, 8, 12, and 24 hours after dosing. The power model method was used to assess the dose proportionality.

[4] = human, 1000 mg, fed, high-fat breakfast (n =12)

C=CC(=O)Nc1ccc2ncnc(Nc3ccc(OCc4cccc(F)c4)c(Cl)c3)c2c1 [AST1306]
MTD ([1]; TID, continuous-dosing schedule, oral): 1000 mg | Anorexia grade 3, treatment-related AE, patients ([1]; human, in vivo): 0 | Fatigue grade 3, treatment-related AE, % of patients ([1]; human, in vivo): 0% | Fatigue grade 3, treatment-related AE, patients ([1]; human, in vivo): 0 | Hand-foot syndrome grade 3, treatment-related AE, % of patients ([1]; human, in vivo): 0% | Hand-foot syndrome grade 3, treatment-related AE, patients ([1]; human, in vivo): 0 | Proteinuria grade 3, treatment-related AE, % of patients ([1]; human, in vivo): 0% | Proteinuria grade 3, treatment-related AE, patients ([1]; human, in vivo): 0 | Vomiting grade 3, treatment-related AE, % of patients ([1]; human, in vivo): 0% | Vomiting grade 3, treatment-related AE, patients ([1]; human, in vivo): 0 | discontinuation from treatment due to diarrhea, % of patients ([1]; human, in vivo): 7% | discontinuation from treatment due to diarrhea, patients ([1]; human, in vivo): 5 | discontinuation from treatment due to hypokalemia, patients ([1]; human, in vivo): 1 | grade 3 drug-related abdominal pain, % of patients ([1]; human, in vivo): 1.4% | grade 3 drug-related abdominal pain, patients ([1]; human, in vivo): 1 | grade 3 drug-related anemia, % of patients ([1]; human, in vivo): 1.4% | grade 3 drug-related anemia, patients ([1]; human, in vivo): 1 | grade 3 drug-related diarrhea, % of patients ([1]; human, in vivo): 32.4% | grade 3 drug-related diarrhea, patients ([1]; human, in vivo): 23 | grade 3 drug-related elevated ALT or AST, % of patients ([1]; human, in vivo): 4.2% | grade 3 drug-related elevated ALT or AST, patients ([1]; human, in vivo): 3 | grade 3 drug-related hypokalemia, % of patients ([1]; human, in vivo): 1.4% | grade 3 drug-related hypokalemia, patients ([1]; human, in vivo): 1 | grade 3 drug-related rash, % of patients ([1]; human, in vivo): 1.4% | grade 3 drug-related rash, patients ([1]; human, in vivo): 1 | grade 3 study drug-related AEs, % of patients ([1]; human, in vivo): 39.4% | grade 3 study drug-related AEs, patients ([1]; human, in vivo): 28 | grade 4 to 5 AEs ([1]; human, in vivo): no observed grade 4 to 5 AEs | patients with serious AEs (SAE) ([1]; human, in vivo): 8 | treatment-related diarrhea, % of patients ([1]; human, in vivo): 85.9% | treatment-related diarrhea, patients ([1]; human, in vivo): 61 | treatment-related fatigue, % of patients ([1]; human, in vivo): 19.7% | treatment-related fatigue, patients ([1]; human, in vivo): 14 | treatment-related rash, % of patients ([1]; human, in vivo): 16.9% | treatment-related rash, patients ([1]; human, in vivo): 12 | patients with DLT (grade 3 diarrhea) ([1]; human, in vivo, 21 days): 5 | recommended phase II dose (RP2D) ([1]; human, in vivo, po, 21 days): 1000 mg | decline in LVEF ([1]; in vivo): no significant decline in LVEF | patients with dose reductions (all due to diarrhea) ([1]; in vivo): Seven | patients with study drug-related AEs ([1]; in vivo): Sixty-eight | antitumor activity in xenograft models [2]: showed antitumor activities | apparent oral clearance (CL/F) ([3]; fasted (n =12)): 3970 (1370-8890) L/h | apparent oral clearance (CL/F) ([3]; fed, high-fat breakfast (n =12)): 1360 (608-2340) L/h | Treatment ratio fed/fasted, AUC0-∞ ([3]; human, in vivo, 1000 mg): 269 (208-348) % | Treatment ratio fed/fasted, AUC0–t ([3]; human, in vivo, 1000 mg): 284 (219-368) % | Treatment ratio fed/fasted, Cmax ([3]; human, in vivo, 1000 mg): 228 (170-305) % | Tmax ([3]; human, 1000 mg, fasted (n =12)): 2.38 h | AUC(0-inf) ([3]; human, 1000 mg, fasted (n =12)): 331 ng·h/mL | AUC(0-t) ([3]; human, 1000 mg, fasted (n =12)): 311 ng·h/mL | Cmax ([3]; human, 1000 mg, fasted (n =12)): 70.3 ng/mL | half-life ([3]; human, 1000 mg, fasted (n =12)): 6.99 h | Tmax [3, 4]: 4.25 h | AUC(0-inf) [3, 4]: 814 ng·h/mL | AUC(0-t) [3, 4]: 797 ng·h/mL | Cmax [3, 4]: 139 ng/mL | half-life [3, 4]: 4.19 h

Source: PMC4007625, “A phase I study of AST1306, a novel irreversible EGFR and HER2 kinase inhibitor, in patients with advanced solid tumors” (Journal of Hematology & Oncology, 2014)
